The text below walks through data of patent US20210363254A1, “PHARMACEUTICAL COMBINATIONS” (Novartis AG, priority 2018, published 2021).

The experiment has as its system Colon 26 tumors. In words: Anti-tumor activity in Colon 26 syngeneic tumor model (8020 Colon 26-XEF). Type of experiment: in vivo, mouse. The protocol:
Time to endpoint. Balb/c mice were implanted with 2×10^5 Colon 26 cells subcutaneously. Mice were treated with HDM201 at 40 mg/kg×3 for every 3h po on Days 12, 19 and 26 post cell implant, and the aPD-1 antibody at 5 mg/kg ip on days 12, 15, 19, and 22. End point was defined as tumor volume equal or greater than 1000 mm^3. Log Rank, p<0.05.
FIG. 25: Individual Tumor Growth Curves (8020 Colon 26-XEF) Individual tumor growth curves. Balb/c mice were implanted with 2×10^5 Colon 26 cells subcutaneously. Mice were treated with HDM201 at 40 mg/kg×3 for every 3h po on Days 12, 19 and 26 post cell implant, and the aPD-1 antibody at 5 mg/kg ip on days 12, 15, 19, and 22. End point was defined as tumor volume equal to or greater than 1000 mm^3. The horizontal dashed line indicates the tumor endpoint tumor size (1000 mm^3).
Colon 26 cells were harvested at 80-95% confluence, washed, and re-suspended in cold PBS at a concentration of 2×10^6 cells/ml. Finally, 0.2×10^6 cells in a total volume of 100 μL were implanted subcutaneously (sc) into the upper right flank of naive Balb/c mice.
For Study 8020 Colon 26-XEF, animals were randomized and enrolled onto the study when tumor volumes reached a range of 27-60 mm^3 on day 10 post cell implantation. All treatments were initiated three days later on day 13. For the PD studies, animals were randomized when the mean tumor volume reached 100˜120 mm^3.
The designs of studies 7628 Colon 26-XPD, 8063 Colon 26-XPD and 8020 Colon 26-XEF including dose and schedule for treatment groups are summarized in Tables Ex3.2 to Ex3.4. Animals were weighed on dosing day(s) and the dosing volume was adjusted to body weight to 10 ml/kg. Tumor dimensions and body weights were recorded at the time of randomization and twice weekly thereafter for the study duration. The following data were collected after each day of data collection: incidence of mortality, individual and group average body weights, and individual and group average tumor volume.
Percent treatment/control (% T/C) and percent regression (% Reg) values were calculated using the following formulas, respectively:
% Reg=100×ΔT/Tinitial if ΔT<0 […]
A Kaplan-Meier survival analysis was performed to compare differences in time to endpoint (TTE). Mice were scored as achieving tumor endpoint once tumor volume exceeded 1000 mm^3 and scored as dead (“1”). […]
The anti-tumor activity of HDM201 with aPD1 antibody targeting the PD-1/PD-L1 axis was explored in the Colon 26 murine syngeneic model (8020 Colon 26-XEF). […] Tumor growth delay was assessed as median time to endpoint using the Kaplan-Meier analysis (GraphPad v7.0).

On to `COc1ncc(-c2nc3c(n2C(C)C)[C@H](c2ccc(Cl)cc2)N(c2cc(Cl)cn(C)c2=O)C3=O)c(OC)n1` [HDM201, (S)-5-(5-Chloro-1-methyl-2-oxo-1,2-dihydro-pyridin-3-yl)-6-(4-chloro-phenyl)-2-(2,4-dimethoxy-pyrimidin-5-yl)-1-isopropyl-5,6-dihydro-1H-pyrrolo[3,4-d]imidazol-4-one], for which the “animals with partial response” value (10 mice per group) was 1/10. For the same compound, the “complete tumor regression / complete responses (CR), animals” value (10 mice per group, HDM201 40 mg/kg 3×q3h po weekly, aPD1 Ab 5 mg/kg ip) is listed as “no CR”. The tumor growth result (HDM201 40 mg/kg) is “inhibited tumor growth”. Further, the “median time to endpoint (TV≥1000 mm^3), Kaplan-Meier” value (HDM201 40 mg/kg 3×q3h po weekly, aPD1 Ab 5 mg/kg ip, vehicle 23 days) is listed as 31.5 days.
